{"source": "patent US20040038861A1", "about": "“Methods and compositions for normalizing lipid levels in mammalian tissues” (priority 2001, published 2004)", "key": {"[1]": {"test_system": "soleus muscle", "assay": "Lipid metabolites (free fatty acid, glycerol, triglyceride; enzymatic analysis) in isolated soleus muscle from normally fed rats", "format": "cell-based, rat", "conditions": "soleus, normally fed rats, 100 nM amylin or CGRP-1, 4.4 μM norepinephrine"}, "[2]": {"test_system": "soleus muscle", "assay": "Individual free fatty acids by gas chromatography in isolated soleus muscle from normally fed rats", "format": "cell-based, rat", "protocol": "Animal models. Normallyfed rats. All protocols were approved by the University of Auckland Animal Ethics Committee. Male Wistar rats, (age=50 d) weighing 200-250 g, were housed in a constant 12 h/12 h-light/dark cycle and received standard rat-chow (Diet 86, NRM, Auckland) and water ad libitum. The standard diet contained 5% fat (w/w), which comprised mainly beef tallow. The triglyceride, total and free fatty acid contents of representative samples of this diet were analyzed, and are shown in Table 3. Rats were anaesthetized by intraperitoneal injection of sodium pentobarbital (45 mg/kg body weight) then sacrificed by cervical dislocation.\nSoleus muscle tissue isolation and incuhation.Immersion and incubation media was Krebs-Henseleit buffer (KHB) containing 118.5 mM NaCl, 4.75 mM KCl, 1.18 mM MgSO4.7H2O and KH2PO4, 24.8 mM NaHCO3, 2.54 mM CaCl2 and 10 mM d-glucose. The medium was gassed continuously with 95% O2/5% CO2. […] Soleus muscles of both legs were excised keeping the tissue immersed in KHB; muscles were separated into two equal parts and transferred to the incubation flasks. At the completion of incubation the muscles were snap frozen in liquid nitrogen, and then trimmed of connective tissue and all visible fat. The muscle strips were stored at −80° C. until analysis.\nLipid extraction and chromatographic separation of fatty acids. Total lipids were extracted from muscle strips by a modified version of the method of Bligh and Dyer (Gorski et al., 1988, Mol & Cell Biochem 178:113-118; 1. Bligh et al., 1959, Can J Biochem Physiol 37: 911-917). Muscles were homogenised (Soniprep 150) in 0.4 ml of deionised water. Solvent volumes used herein were varied according to the water content of the muscle (ie muscle weight) as described (Bligh & Dyer, supra). 2 vols of methanol containing 0.005% butylated hydroxy toluene (BHT) and 1 vol chloroform were added to the muscle suspension. Homogenates were vortexed at maximum speed for 2 minutes and centrifuged at 2,500 g for 4 minutes. Supernatants were recovered and pellets re-extracted with 2 vol methanol, 1 vol chloroform and 0.8 vol 0.2 N HCl. Residues were vortexed for 2 min then centrifuged at 3,500 g for 3 min. After centrifugation the combined supernatants were diluted with 2v each of milli Q water and chloroform and the phases separated by centrifugation at 3,500 g for 4 minutes. The lower chloroform phase was recovered, neutralised by dropwise addition of 0.2 N methanolic NH4OH and evaporated down in a stream of N2. The samples were stored at −80° C. until required.\nAminopropyl phase (250 mg) was packed into 16 ml teflon columns with teflon frits placed at the top and bottom of the bonded phase. Columns were placed in a Vac Elut apparatus and washed twice with 2 ml portions of hexane (Prasad et al., 1988, J Chromato 428: 221-228; Kaluzny et al., 1985, J Lipid Res 26: 135-140). The dry lipid samples were taken up in two 0.150 ml portions of chloroform and applied to the column under atmospheric pressure. After adsorption the neutral lipids were eluted with 4 ml of chloroform-2-propanol (2:1, v/v) and the free fatty acids eluted with 4 ml of 2% acetic acid in diethyl ether. The solvent containing the free fatty acids was dried under a stream of N2.\nGas-liquid chromatographic analysis. Dry free fatty acid residues were processed for derivatisation of methyl esters by the boron trifluoride-methanol method (Prasad, supra). 1 ml of boron trifluoride in methanol (BF3) was added to each sample, the sample vials were heated at 70° C. for 5 minutes, shaken vigorously, and baked for a further 10 minutes. Once the samples reached room temperature 0.5 ml milli Q water was added, the sample vials shaken, 0.1 ml heptane was added and the sample shaken again. 0.05 ml of the top heptane layer was removed for GLC analysis. […]"}, "[3]": {"conditions": "normally fed rats, hormone 1 hour, GC"}, "[4]": {"conditions": "normally fed rats, hormone 1 hour, GC, listed as norepinephrine"}}}
{"smiles": "NC[C@H](O)c1ccc(O)c(O)c1", "note": "[Norepinephrine, norepinephrine]", "values": [{"measurement": "triacylglycerol (triglyceride) content", "setting": "[1]; 60-min, control 1.17±0.15, not significant", "value": "0.81 ± 0.09", "unit": "µmol/g"}, {"measurement": "intramuscular free fatty acid content", "setting": "[1]; 1 h, 23.7 nM insulin, control 78±21", "value": "295 ± 27", "unit": "nmol/g"}, {"measurement": "intramuscular glycerol content", "setting": "[1]; 1 h, control 0.07±0.007", "value": "0.04 ± 0.005", "unit": "nmol/g"}, {"measurement": "Total free fatty acids", "setting": "[2]; 1 hour, GC, hormone concentrations 100 nM for all", "value": "0.527 ± 0.03", "unit": "nmol/g wwt"}, {"measurement": "free fatty acid C14:0 as percentage of total resting fatty acid", "setting": "[2]; normally fed rats, 1 hour", "value": 3.1, "unit": "%"}, {"measurement": "free fatty acid C15:0 as percentage of total resting fatty acid", "setting": "[2]; normally fed rats, 1 hour", "value": 10.9, "unit": "%"}, {"measurement": "free fatty acid C16:0 as percentage of total resting fatty acid", "setting": "[2]; normally fed rats, 1 hour", "value": 2.2, "unit": "%"}, {"measurement": "free fatty acid C16:1 (n-7) as percentage of total resting fatty acid", "setting": "[2]; normally fed rats, 1 hour", "value": 14.3, "unit": "%"}, {"measurement": "free fatty acid C16:1 (n-9) as percentage of total resting fatty acid", "setting": "[2]; normally fed rats, 1 hour", "value": 6.0, "unit": "%"}, {"measurement": "free fatty acid C17:0 as percentage of total resting fatty acid", "setting": "[2]; normally fed rats, 1 hour", "value": 7.2, "unit": "%"}, {"measurement": "free fatty acid C18:0 as percentage of total resting fatty acid", "setting": "[2]; normally fed rats, 1 hour", "value": 2.4, "unit": "%"}, {"measurement": "free fatty acid C18:1 (n-7) as percentage of total resting fatty acid", "setting": "[2]; normally fed rats, 1 hour", "value": 1.2, "unit": "%"}, {"measurement": "free fatty acid C18:1 (n-9) as percentage of total resting fatty acid", "setting": "[2]; normally fed rats, 1 hour", "value": 1.4, "unit": "%"}, {"measurement": "free fatty acid C18:2 as percentage of total resting fatty acid", "setting": "[2]; normally fed rats, 1 hour", "value": 0.8, "unit": "%"}, {"measurement": "free fatty acid C18:3 as percentage of total resting fatty acid", "setting": "[2]; normally fed rats, 1 hour", "value": 2.5, "unit": "%"}, {"measurement": "free fatty acid C20:0 as percentage of total resting fatty acid", "setting": "[2]; normally fed rats, 1 hour", "value": 2.0, "unit": "%"}, {"measurement": "free fatty acid C20:4 as percentage of total resting fatty acid", "setting": "[2]; normally fed rats, 1 hour", "value": 0.9, "unit": "%"}, {"measurement": "free fatty acid C20:5 as percentage of total resting fatty acid", "setting": "[2]; normally fed rats, 1 hour", "value": 0.4, "unit": "%"}, {"measurement": "free fatty acid C22:4 as percentage of total resting fatty acid", "setting": "[2]; normally fed rats, 1 hour", "value": 7.5, "unit": "%"}, {"measurement": "free fatty acid C22:6 as percentage of total resting fatty acid", "setting": "[2]; normally fed rats, 1 hour", "value": 2.5, "unit": "%"}, {"measurement": "free fatty acid adrenic C22:4", "setting": "[2]; [3]", "value": "0.007 ± 0.001", "unit": "nmol/g wwt"}, {"measurement": "free fatty acid arachidic C20:0", "setting": "[2]; [3]", "value": "0.003 ± 0.001", "unit": "nmol/g wwt"}, {"measurement": "free fatty acid arachidonic C20:4", "setting": "[2]; [3]", "value": "0.015 ± 0.0007", "unit": "nmol/g wwt"}, {"measurement": "free fatty acid cervonic C22:6", "setting": "[2]; [3]", "value": "0.022 ± 0.0015", "unit": "nmol/g wwt"}, {"measurement": "free fatty acid linoleic C18:2", "setting": "[2]; [3]", "value": "0.043 ± 0.003", "unit": "nmol/g wwt"}, {"measurement": "free fatty acid linolenic C18:3", "setting": "[2]; [3]", "value": "0.007 ± 0.0025", "unit": "nmol/g wwt"}, {"measurement": "free fatty acid margaric C17:0", "setting": "[2]; [3]", "value": "0.01 ± 0.0007", "unit": "nmol/g wwt"}, {"measurement": "free fatty acid myristic C14:0", "setting": "[2]; [3]", "value": "0.023 ± 0.001", "unit": "nmol/g wwt"}, {"measurement": "free fatty acid oleic C18:1", "setting": "[2]; [3]", "value": "0.07 ± 0.0056", "unit": "nmol/g wwt"}, {"measurement": "free fatty acid palmitic C16:0", "setting": "[2]; [3]", "value": "0.175 ± 0.011", "unit": "nmol/g wwt"}, {"measurement": "free fatty acid palmitoleic (n-7) C16:1", "setting": "[2]; [3]", "value": "0.015 ± 0.002", "unit": "nmol/g wwt"}, {"measurement": "free fatty acid palmitoleic (n-9) C16:1", "setting": "[2]; [3]", "value": "0.007 ± 0.0007", "unit": "nmol/g wwt"}, {"measurement": "free fatty acid pentadecanoic C15:0", "setting": "[2]; [3]", "value": "0.01 ± 0.0012", "unit": "nmol/g wwt"}, {"measurement": "free fatty acid stearic C18:0", "setting": "[2]; [3]", "value": "0.1 ± 0.006", "unit": "nmol/g wwt"}, {"measurement": "free fatty acid timnodonic C20:5", "setting": "[2]; [3]", "value": "0.002 ± 0.0005", "unit": "nmol/g wwt"}, {"measurement": "free fatty acid vaccenic C18:1", "setting": "[2]; [3]", "value": "0.015 ± 0.0008", "unit": "nmol/g wwt"}, {"measurement": "free fatty acid arachidonic C20:4", "setting": "[2]; [4]", "value": "0.015±0.0007", "unit": "nmol/g wwt"}, {"measurement": "free fatty acid cervonic C22:6", "setting": "[2]; [4]", "value": "0.022±0.0015", "unit": "nmol/g wwt"}, {"measurement": "free fatty acid palmitoleic (n-9) C16:1", "setting": "[2]; [4]", "value": "0.007±0.0007", "unit": "nmol/g wwt"}]}
